Source: US20260224582A1, “Heterobicyclic amides as inhibitors of CD38” (Cerevance, Inc., priority 2022, published 2026)

How the values were obtained:
Recombinant human CD38 = biological target: T1, Recombinant human CD38 (Homo sapiens, UniProt P28907); assay: Human CD38 hydrolase assay (fluorescence-based, ε-NAD substrate); assay type: biochemical; conditions: recombinant human CD38 0.8 nM, 4 μM ε-NAD, 30 min preincubation at 25° C.
T1 sequence (P28907 1-300): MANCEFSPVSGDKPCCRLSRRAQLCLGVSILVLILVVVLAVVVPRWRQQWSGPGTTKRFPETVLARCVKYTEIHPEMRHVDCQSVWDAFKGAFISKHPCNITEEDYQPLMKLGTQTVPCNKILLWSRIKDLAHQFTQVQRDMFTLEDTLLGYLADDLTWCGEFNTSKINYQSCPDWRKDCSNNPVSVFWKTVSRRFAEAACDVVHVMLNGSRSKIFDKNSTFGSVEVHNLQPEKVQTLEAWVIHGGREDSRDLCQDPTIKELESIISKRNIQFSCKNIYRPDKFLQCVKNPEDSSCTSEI
Experimental: The ability of test compounds to inhibit human CD38 hydrolase activity was measured in a fluorescence-based assay using non-physiological NAD^+ substrate analogue 1,N^6-etheno NAD^+ (ε-NAD). Recombinant human CD38 (0.8 nM) was preincubated with test compounds in 384-well black microplates for 30 min at 25° C. in PBS (—Ca^2+/Mg^2+) containing 0.005% BSA (pH 7.4). CD38 hydrolase activity was initiated by addition of 4 μM ε-NAD, which yields the fluorescent product 1,N^6-etheno ADP-ribose. Formation of fluorescent product was followed using ClarioStar Plus (BMG) microplate reader by reading fluorescence (excitation λ=300 nm; emission λ=410 nm) at two time points, one immediately after substrate addition (t=0) and one at 10 min (t=10). Data was analysed by subtracting the values detected at t=0 from t=10 to correct for variation in baseline fluorescence. Fluorescence values were converted to percent inhibition using the average of high signal (CD38 and ε-NAD) and low signal (CD38 and ε-NAD in the presence of a tool CD38 inhibitor) control wells. IC50 values were determined from a 10-point, half log concentration response curve with a four-parameter logistic equation.

Recombinant mouse CD38 = biological target: T2, Recombinant mouse CD38 (Mus musculus, UniProt P56528); assay: Mouse CD38 hydrolase assay (fluorescence-based, ε-NAD substrate); assay type: biochemical; conditions: recombinant mouse CD38 0.4 nM, 12 μM ε-NAD, 30 min preincubation at 25° C.
T2 sequence (P56528 1-304): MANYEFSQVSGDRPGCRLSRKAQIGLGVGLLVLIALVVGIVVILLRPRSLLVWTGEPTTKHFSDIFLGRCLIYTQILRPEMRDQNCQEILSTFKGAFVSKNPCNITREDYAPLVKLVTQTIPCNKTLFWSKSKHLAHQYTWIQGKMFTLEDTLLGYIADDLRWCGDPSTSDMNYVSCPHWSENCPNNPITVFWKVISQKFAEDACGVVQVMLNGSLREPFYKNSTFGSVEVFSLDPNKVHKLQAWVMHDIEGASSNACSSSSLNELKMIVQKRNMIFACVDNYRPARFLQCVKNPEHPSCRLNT
Experimental: The ability of test compounds to inhibit mouse CD38 hydrolase activity was measured in a fluorescence-based assay using non-physiological NAD^+ substrate analogue 1,N^6-etheno NAD^+ (&-NAD). Recombinant mouse CD38 (0.4 nM) was preincubated with test compounds in 384-well black microplates for 30 min at 25° C. in PBS (—Ca^2+/Mg^2+) containing 0.005% BSA (pH 7.4). CD38 hydrolase activity was initiated by addition of 12 μM ε-NAD, which yields the fluorescent product 1,N^6-etheno ADP-ribose. Formation of fluorescent product was followed using ClarioStar Plus (BMG) microplate reader by reading fluorescence (excitation λ=300 nm; emission λ=410 nm) at two time points, one immediately after substrate addition (t=0) and one at 6 min (t=6).
Data was analysed by subtracting the values detected at t=0 from t=6 to correct for variation in baseline fluorescence. Fluorescence values were converted to percent inhibition using the average of high signal (CD38 and ε-NAD) and low signal (CD38 and ε-NAD in the presence of a tool CD38 inhibitor) control wells. IC50 values were determined from a 10-point, halflog concentration response curve with a four-parameter logistic equation.

IC50 (Recombinant human CD38)	IC50 (Recombinant mouse CD38)	SMILES
≤ 40 nM	≤ 40 nM	O=C(N[C@H]1CC[C@H](N2CC[C@@H](O)C2)CC1)c1nc(-n2ccnc2)nn2cccc12 [Example 27, N-((1R,4r)-4-((R)-3-hydroxypyrrolidin-1-yl)cyclohexyl)-2-(1H-imidazol-1-yl)pyrrolo[2,1-f][1,2,4]triazine-4-carboxamide]
≤ 10000 nM	≤ 40 nM	O=C(N[C@H]1CC[C@H](N2CC[C@@H](F)C2)CC1)c1nc(-n2ccnc2)c2cccn2n1 [Example 28, N-((1R,4r)-4-((R)-3-fluoropyrrolidin-1-yl)cyclohexyl)-4-(1H-imidazol-1-yl)pyrrolo[2,1-f][1,2,4]triazine-2-carboxamide]
≤ 100 nM	≤ 40 nM	O=C(N[C@H]1CC[C@H](NCC(F)(F)F)CC1)c1nc(-c2cncs2)nn2cccc12 [Example 30, 2-(thiazol-5-yl)-N-((1r,4r)-4-((2,2,2-trifluoroethyl)amino)cyclohexyl)pyrrolo[2,1-f][1,2,4]triazine-4-carboxamide]
≤ 40 nM	≤ 40 nM	O=C(N[C@H]1CC[C@H](NCC(F)F)CC1)c1nc(-n2ccnc2)nn2cccc12 [Example 31, N-((1r,4r)-4-((2,2-difluoroethyl)amino)cyclohexyl)-2-(1H-imidazol-1-yl)pyrrolo[2,1-f][1,2,4]triazine-4-carboxamide]
≤ 100 nM	≤ 40 nM	O=C(N[C@H]1CC[C@H](N2CC[C@H](F)C2)CC1)c1nc(-n2ccnc2)nc2ncccc12 [Example 32, N-((1S,4r)-4-((S)-3-fluoropyrrolidin-1-yl)cyclohexyl)-2-(1H-imidazol-1-yl)pyrido[2,3-d]pyrimidine-4-carboxamide]
≤ 100 nM	≤ 40 nM	O=C(N[C@H]1CC[C@H](N2CC[C@@H](F)C2)CC1)c1cn2nccc2c(-n2ccnc2)n1 [Example 35, N-((1R,4r)-4-((R)-3-fluoropyrrolidin-1-yl)cyclohexyl)-4-(1H-imidazol-1-yl)pyrazolo[1,5-a]pyrazine-6-carboxamide]
≤ 100 nM	≤ 40 nM	O=C(N[C@H]1CC[C@H](N2CC[C@H](F)C2)CC1)c1cn2nccc2c(-n2ccnc2)n1 [Example 36, N-((1S,4r)-4-((S)-3-fluoropyrrolidin-1-yl)cyclohexyl)-4-(1H-imidazol-1-yl)pyrazolo[1,5-a]pyrazine-6-carboxamide]
≤ 100 nM	≤ 40 nM	O=C(N[C@H]1CC[C@H](NCC(F)F)CC1)c1cn2nccc2c(-n2ccnc2)n1 [Example 37, N-((1r,4r)-4-((2,2-difluoroethyl)amino)cyclohexyl)-4-(1H-imidazol-1-yl)pyrazolo[1,5-a]pyrazine-6-carboxamide]
≤ 1000 nM	≤ 40 nM	O=C(N[C@H]1CC[C@H](NCC(F)F)CC1)c1cn2ccnc2c(-n2ccnc2)n1 [Example 38, N-((1r,4r)-4-((2,2-difluoroethyl)amino)cyclohexyl)-8-(1H-imidazol-1-yl) imidazo[1,2-a]pyrazine-6-carboxamide]
≤ 100 nM	≤ 40 nM	O=C(N[C@H]1CC[C@H](N2CC[C@@H](F)C2)CC1)c1cn2ccnc2c(-n2ccnc2)n1 [Example 39, N-((1R,4r)-4-((R)-3-fluoropyrrolidin-1-yl)cyclohexyl)-8-(1H-imidazol-1-yl) imidazo[1,2-a]pyrazine-6-carboxamide]
≤ 1000 nM	≤ 40 nM	O=C(N[C@H]1CC[C@H](N2CC[C@H](F)C2)CC1)c1cn2ccnc2c(-n2ccnc2)n1 [Example 40, N-((1S,4r)-4-((S)-3-fluoropyrrolidin-1-yl)cyclohexyl)-8-(1H-imidazol-1-yl) imidazo[1,2-a]pyrazine-6-carboxamide]
≤ 40 nM	≤ 40 nM	Cc1cncn1-c1nc(C(=O)N[C@H]2CC[C@H](NCC(F)(F)F)CC2)c2cccn2n1 [Example 42, 2-(5-methyl-1H-imidazol-1-yl)-N-((1r,4r)-4-((2,2,2-trifluoroethyl)amino)cyclohexyl)pyrrolo[2,1-f][1,2,4]triazine-4-carboxamide]
